Measured values reported in ChEMBL document CHEMBL3860104, “Fragment-Based Approach to the Development of an Orally Bioavailable Lactam Inhibitor of Lipoprotein-Associated Phospholipase A2 (Lp-PLA2)” (J Med Chem, 2016).
Converted amounts (≈) assume the structure as drawn. Each block holds one compound with its values, some of them ahead of it.

Columns and labels:
[1] = target: T1, Platelet-activating factor acetylhydrolase (Homo sapiens, UniProt Q13093)
T1 sequence (Q13093 whole entry): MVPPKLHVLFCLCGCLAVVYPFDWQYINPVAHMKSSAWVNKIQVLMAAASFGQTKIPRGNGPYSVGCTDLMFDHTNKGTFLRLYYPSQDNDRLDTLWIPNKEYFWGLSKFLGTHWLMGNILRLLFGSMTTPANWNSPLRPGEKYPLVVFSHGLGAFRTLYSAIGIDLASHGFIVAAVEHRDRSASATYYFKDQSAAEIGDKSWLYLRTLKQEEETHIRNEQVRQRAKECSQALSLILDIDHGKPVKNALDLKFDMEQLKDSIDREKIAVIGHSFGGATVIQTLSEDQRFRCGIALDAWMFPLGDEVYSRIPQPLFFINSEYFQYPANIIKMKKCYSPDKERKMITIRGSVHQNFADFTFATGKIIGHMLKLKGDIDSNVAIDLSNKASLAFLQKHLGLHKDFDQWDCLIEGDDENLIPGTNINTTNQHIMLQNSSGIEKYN
Description: Inhibition of recombinant human Lp-PLA2 pre-incubated for 30 mins before PED6 fluorogenic substrate

[2] = Clearance in Han Wistar rat at 1 mg/kg, iv or 3 mg/kg, po administered as bolus dose by LC/MS-MS method; assay type: ADME, organism-based; conditions: in vivo
[3] = Clearance in Beagle dog at 0.5/1 mg/kg, iv or 0.5 mg/kg, po by LC/MS-MS method; assay type: ADME, organism-based, Canis lupus familiaris; conditions: in vivo
[4] = Half life in Han Wistar rat at 1 mg/kg, iv or 3 mg/kg, po administered as bolus dose by LC/MS-MS method; assay type: ADME, organism-based; conditions: in vivo
[5] = Intrinsic clearance rat liver microsomes at 30 ug/mL pre-incubated for 7 mins before NADPH addition by LC/MS-MS method; assay type: ADME
Cytochrome P450 3A4 = Cytochrome P450 3A4 (Homo sapiens, UniProt P08684); assay: Inhibition of CYP3A4 (unknown origin) expressed in Escherichia coli co-expressing human NADPH reductase using both 7-benzyloxyquinolone and diethoxyfluorescein substrate in presence of NADPH regenerating system incubated for 10 mins by spectrofluorometry; assay type: ADME
Chain of Cytochrome P450 3A4 (P08684 whole entry): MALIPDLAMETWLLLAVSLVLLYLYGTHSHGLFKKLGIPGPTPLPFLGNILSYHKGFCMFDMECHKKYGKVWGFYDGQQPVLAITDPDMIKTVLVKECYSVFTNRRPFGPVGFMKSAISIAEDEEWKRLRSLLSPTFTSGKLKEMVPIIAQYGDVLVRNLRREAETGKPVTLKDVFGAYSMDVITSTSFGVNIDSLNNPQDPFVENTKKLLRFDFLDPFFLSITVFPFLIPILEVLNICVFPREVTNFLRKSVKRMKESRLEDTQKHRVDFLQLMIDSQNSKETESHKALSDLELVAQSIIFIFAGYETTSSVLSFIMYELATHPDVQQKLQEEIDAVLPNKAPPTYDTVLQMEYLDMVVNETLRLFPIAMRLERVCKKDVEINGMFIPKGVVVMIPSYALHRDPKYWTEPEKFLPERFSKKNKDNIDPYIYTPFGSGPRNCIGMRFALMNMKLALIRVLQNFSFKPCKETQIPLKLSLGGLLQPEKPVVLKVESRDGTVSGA

[6] = Lipophilicity, log D of the compound by chromatography; assay type: physicochemical
[7] = Volume of distribution at steady state in Han Wistar rat at 1 mg/kg, iv or 3 mg/kg, po administered as bolus dose by LC/MS-MS method; assay type: ADME, organism-based; conditions: in vivo, read-out: Vdss
[8] = Permeability at pH 7.4 by PAMPA method; assay type: ADME; conditions: read-out: permeability
[9] = Protein binding in dog plasma at 10 uM incubated for 4 hrs by LC/MS-MS based rapid equilibrium dialysis method; assay type: ADME, cell-free, Canis lupus familiaris; conditions: read-out: PPB (converted)
[10] = Solubility in pH 7.4 PBS by CLND assay
[11] = Volume of distribution at steady state in Beagle dog at 0.5/1 mg/kg, iv or 0.5 mg/kg, po by LC/MS-MS method; assay type: ADME, organism-based, Canis lupus familiaris; conditions: in vivo, read-out: Vdss
[12] = Protein binding in rat plasma at 10 uM incubated for 4 hrs by LC/MS-MS based rapid equilibrium dialysis method; assay type: ADME, cell-free; conditions: read-out: PPB (converted)
[13] = Solubility of the compound by quantitative NMR method; assay type: physicochemical
[14] = Half life in Beagle dog at 0.5/1 mg/kg, iv or 0.5 mg/kg, po by LC/MS-MS method; assay type: ADME, organism-based, Canis lupus familiaris; conditions: in vivo
[15] = target: T1, Platelet-activating factor acetylhydrolase; remark: listed apart in the source
Description: Inhibition of recombinant human Lp-PLA2 incubated for 20 mins by Thio-PAF assay

[16] = target: T1, Platelet-activating factor acetylhydrolase; remark: listed apart in the source
Description: Inhibition of Lp-PLA2 in whole human plasma pre-incubated for 15 mins before 2-thio-PAF substrate addition

[17] = Oral bioavailability in Beagle dog at 0.5 mg/kg by LC/MS-MS method; assay type: ADME, organism-based, Canis lupus familiaris; conditions: in vivo
[18] = Oral bioavailability in Han Wistar rat at 3 mg/kg administered as bolus dose by LC/MS-MS method; assay type: ADME, organism-based; conditions: in vivo
[19] = Stability in rat blood assessed as compound remaining level; assay type: ADME, tissue-based

SMILES: CN1CC(=O)N(CCOc2ccccc2)C1=O
IC50 [1]: 1000 µM

SMILES: CC1(C)CN(CCOc2ccc(F)cc2)C(=O)N1
IC50 [1]: 39 µM

SMILES: CC1(C)CCC(=O)N(CCOc2ccc(F)cc2)C1
IC50 [1]: 10 µM

SMILES: O=C1NC2(CCCCC2)C(=O)N1CCOc1ccc(F)cc1
IC50 [1]: 14 µM

SMILES: CC1([C@@H]2CC(=O)N(CCOc3ccc(F)c(C#N)c3)C2)CCS(=O)(=O)CC1
clearance [2]: 67 mL/min/kg
clearance [3]: 11 mL/min/kg
half-life [4]: 0.34 h
CLH [5]: 1.1 mL/min/g
IC50 (Cytochrome P450 3A4): > 50 µM
chromatographic logD [6]: 3
Vd [7]: 1.2 L/kg
Papp [8]: 3.6 ×10⁻⁶ cm/s
fraction unbound at 4 h, 10 µM [9]: 0.75
solubility kinetic [10]: > 509 µM
Vd [11]: 1.3 L/kg
fraction unbound at 4 h, 10 µM [12]: 0.8
solubility [13]: 3500 µM (≈ 1380 µg/mL)
half-life [14]: 1.3 h

SMILES: CN1C(=O)N(CCOc2ccccc2)C(=O)C1(C)C
IC50 [1]: 20 µM

SMILES: CN1CCC(C)([C@H]2CC(=O)N(CCOc3ccc(F)c(C#N)c3)C2)CC1
chromatographic logD [6]: 1.7

SMILES: CC1([C@@H]2CC(=O)N(CCOc3ccc(F)c(F)c3)C2)CCS(=O)(=O)CC1
IC50 (Cytochrome P450 3A4): > 50 µM
chromatographic logD [6]: 3.4
IC50 [16]: 0.1 µM
IC50 [1]: 0.086 µM
Papp [8]: 17 ×10⁻⁶ cm/s
solubility kinetic [10]: > 450 µM
fraction unbound at 4 h, 10 µM [12]: 0.7

SMILES: CC1([C@H]2CC(=O)N(CCOc3ccc(F)c(C#N)c3)C2)CCS(=O)(=O)CC1
chromatographic logD [6]: 2.8

SMILES: CN1CCC(C)(C2CC(=O)N(CCOc3ccc(F)c(C#N)c3)C2)CC1.Cl (racemic)
clearance [2]: 24 mL/min/kg
clearance [3]: 8.6 mL/min/kg
half-life [4]: 1.8 h
bioavailability [17]: 76%
Vd [7]: 3.2 L/kg
bioavailability [18]: 52%
Vd [11]: 2.5 L/kg
half-life [14]: 3.2 h

SMILES: N#Cc1cc(OCCN2CC(c3ccccc3)CC2=O)ccc1F (racemic)
IC50 [15]: 0.86 µM

SMILES: CC1(C2CC(=O)N(CCOc3ccc(F)cc3)C2)CCS(=O)(=O)CC1 (racemic)
chromatographic logD [6]: 3.1
IC50 [16]: 1.5 µM
IC50 [1]: 0.76 µM

SMILES: CC1(C2CC(=O)N(CCOc3ccc(F)c(F)c3)C2)CCS(=O)(=O)CC1 (racemic)
clearance [2]: 22 mL/min/kg
half-life [4]: 0.35 h
chromatographic logD [6]: 3.4
IC50 [16]: 0.29 µM
IC50 [1]: 0.16 µM
Vd [7]: 0.63 L/kg
bioavailability [18]: 47%

SMILES: CC(=O)N1CCC(C)(C2CC(=O)N(CCOc3ccc(F)c(C#N)c3)C2)CC1 (racemic)
chromatographic logD [6]: 2.9
IC50 [16]: 0.66 µM
IC50 [1]: 0.25 µM

SMILES: CC1(C2CC(=O)N(CCOc3ccc(F)c(C#N)c3)C2)CCOCC1 (racemic)
chromatographic logD [6]: 3.7
IC50 [16]: 0.26 µM
IC50 [1]: 0.16 µM

SMILES: CC1(C2CC(=O)N(CCOc3ccc(F)c(C#N)c3)C2)CCS(=O)(=O)CC1 (racemic)
chromatographic logD [6]: 2.8
Stability [19]: 100%

SMILES: CC1(C2CC(=O)N(CCOc3ccc(F)c(C#N)c3)C2)CCNCC1 (racemic; form 1)
chromatographic logD [6]: 1.5

SMILES: CC1(C2CC(=O)N(CCOc3ccc(F)c(C#N)c3)C2)CCNCC1.Cl (racemic; form 2)
clearance [2]: 15 mL/min/kg
half-life [4]: 2.4 h
IC50 (Cytochrome P450 3A4): > 50 µM
logD [6]: 1.5
Vd [7]: 2 L/kg
bioavailability [18]: < 5%
Papp [8]: < 0.3 ×10⁻⁶ cm/s
solubility kinetic [10]: 242 µM
fraction unbound at 4 h, 10 µM [12]: 0.81

SMILES: CCN(CC)CCN(Cc1ccc(-c2ccc(C(F)(F)F)cc2)cc1)C(=O)Cn1c(SCc2ccc(F)cc2)nc(=O)c2c1CCC2 [DARAPLADIB]
chromatographic logD [6]: 6.3
solubility kinetic [10]: 8 µM (≈ 5.33 µg/mL)

Now from value to compound:

IC50 [15]: 1 µM
SMILES: C[C@]1(c2ccccc2)CC(=O)N(CCOc2ccc(F)c(C#N)c2)C1

IC50 [15]: 5.4 µM
IC50 [16]: 13 µM
SMILES: CC(C)[C@@]1(C)CC(=O)N(CCOc2ccc(F)c(C#N)c2)C1

IC50 [15]: 2.3 µM
IC50 [16]: 6.2 µM
SMILES: CC(C)[C@]1(C)CC(=O)N(CCOc2ccc(F)c(C#N)c2)C1

IC50 [1]: 11 µM
SMILES: CC1(C)CC(=O)N(CCOc2ccc(F)cc2)C1

IC50 [15]: 15 µM
IC50 [1]: 3 µM
SMILES: CC1(C)CC(=O)N(CCOc2ccc(F)c(C#N)c2)C1

IC50 [15]: 1.6 µM
SMILES: C[C@@]1(c2ccccc2)CC(=O)N(CCOc2ccc(F)c(C#N)c2)C1

IC50 (Cytochrome P450 3A4): > 50 µM
Papp [8]: 21 ×10⁻⁶ cm/s
fraction unbound at 4 h, 10 µM [9]: 0.56
solubility kinetic [10]: > 396 µM
fraction unbound at 4 h, 10 µM [12]: 0.71
SMILES: CN1CCC(C)(C2CC(=O)N(CCOc3ccc(F)c(C#N)c3)C2)CC1 (racemic)

IC50 [15]: 1.9 µM
SMILES: CC(C)C1CC(=O)N(CCOc2ccc(F)c(C#N)c2)C1 (racemic)

IC50 [15]: 2 µM
SMILES: CC(C)C1(C)CC(=O)N(CCOc2ccc(F)c(C#N)c2)C1 (racemic)

IC50 [15]: 0.98 µM
IC50 [16]: 5.1 µM
SMILES: CC(C)(C)C1CC(=O)N(CCOc2ccc(F)c(C#N)c2)C1 (racemic)
